# Where two headings read alike, the source gives them in different places.
# Key:
# Mouse Liver [1] = settings: mouse chronic study, liver, coded 6 / Inf, ref ToxRefDB, cited from earlier work
# Mouse Liver [2] = settings: mouse chronic study, liver, coded 6 / Inf, ref ToxRefDB, cited from earlier work; remark: listed apart in the source
# Mouse Liver [3] = settings: ref ToxRefDB, cited from earlier work
# CYP1A1 = experiment: CLZD_CYP1A1: Change in expression of CYP1A1 (primary human hepatocytes); type: cell-based; settings: 24 hr
# Protocol: (§1) This is a collection of multiplexed gene expression assays focused on Phase I and II xenobiotic metabolizing enzymes and transporters. Human primary cell cultures were treated with chemicals at 5 concentrations (0.004-40 [drawing 42] M) for 6, 24 and 48 hr. Concentration- and time-response profiles of chemicals were measured by the expression of key nuclear receptor target genes, activities of CYP1A enzymes (EROD), and cell morphology. Fourteen gene targets were monitored by quantitative nuclease protection assay including: six representative cytochrome P-450 genes, four hepatic transporters, three Phase II conjugating enzymes, and one endogenous metabolism gene involved in cholesterol synthesis. The target genes associated with nuclear receptor pathways are as follows: [drawing 43] and [drawing 44] with [drawing 45]; [drawing 46] , [drawing 47] , [drawing 48] , [drawing 49] , [drawing 50] and [drawing 51] with [drawing 52]; [drawing 53] , [drawing 54] , [drawing 55] and [drawing 56] with [drawing 57]; [drawing 58] with [drawing 59]; and [drawing 60] with [drawing 61] . Assays were run in primary human hepatocyte cultures by CellzDirect Invitrogen Inc. (Durham, NC), in collaboration with EPA.
# (§2) Multiplexed Gene Expression in Human Primary Hepatocytes: This is a collection of multiplexed gene expression assays focused on Phase I and II metabolic enzymes and transporters. […] Fourteen gene targets were monitored by quantitative nuclease protection assay: six representative cytochrome P450 genes, four hepatic transporters, three Phase II conjugating enzymes, and one endogenous metabolism gene involved in cholesterol synthesis. Cells were exposed at 5 concentrations (0.004-40 µM) for 6, 24 or 48 hr. Gene targets are sentinels for five nuclear receptor signaling pathways: AhR, CAR, PXR, FXR, and PPARα. All gene are associated with nuclear receptor pathways: CYP1A1 and CYP1A2 with AHR; ABCB1, ABCG2, CYP2B6, CYP2C9, CYP2C19 and UGT1A1 with CAR; CYP3A4, GSTA2, SLCO1B1 and SULT2A1 with PXR; HMGCS2 with PPARA; and ABCB11 with FXR. […] Detailed description of the methods, data and analysis methods for this dataset will be presented in a separate publication.
# [4] = biological target: T1, PPARG (peroxisome proliferator-activated receptor gamma) (Homo sapiens, UniProt P37231); experiment: ATG_PPARg_TRANS: Factorial reporter gene assay (HepG2); type: cell-based; settings: HepG2
# T1 construct: expressed in transfected cells; host or cells: HepG2
# T1 sequence (P37231 1-505): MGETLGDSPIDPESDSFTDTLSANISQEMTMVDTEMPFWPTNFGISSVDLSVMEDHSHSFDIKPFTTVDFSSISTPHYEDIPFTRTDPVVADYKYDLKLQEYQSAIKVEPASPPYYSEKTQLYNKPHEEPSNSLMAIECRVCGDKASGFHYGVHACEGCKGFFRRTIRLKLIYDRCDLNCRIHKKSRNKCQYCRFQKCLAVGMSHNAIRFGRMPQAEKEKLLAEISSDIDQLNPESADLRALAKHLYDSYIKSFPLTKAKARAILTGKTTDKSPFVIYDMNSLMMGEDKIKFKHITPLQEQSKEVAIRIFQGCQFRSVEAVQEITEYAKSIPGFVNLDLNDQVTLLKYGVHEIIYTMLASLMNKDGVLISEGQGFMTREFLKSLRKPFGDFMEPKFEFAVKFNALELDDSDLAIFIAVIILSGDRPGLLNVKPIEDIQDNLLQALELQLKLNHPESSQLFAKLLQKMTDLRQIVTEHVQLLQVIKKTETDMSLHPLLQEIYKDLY
# Protocol: (§3) A multiple reporter transcription unit (MRTU) library consisting of 48 transcription factor binding sites was transfected into the HepG2 human liver hepatoma cell line. In addition to the cis-acting reporter genes (CIS), a modification of the approach was used to generate a trans-system (TRANS) with a mammalian one-hybrid assay consisting of an additional 25 MRTU library reporting the activity of nuclear receptor super-family members. […] These assays were performed by Attagene Inc. (Morrisville NC) under contract to EPA.
# (§4) In addition to the cis-acting reporter genes (CIS), a modification of the approach was used to generate a trans-system (TRANS) with a mammalian one-hybrid assay consisting of an additional 25 MRTU library reporting the activity of nuclear receptor super-family members. […] Chemicals were then tested in the CIS and TRANS assays at seven concentrations starting at the MTC and followed by three-fold serial dilutions. These assays were performed by Attagene Inc. (Morrisville NC) under contract to EPA. Detailed description of the methods, data and analysis methods for this dataset will be presented in a separate publication.
# Rat Liver [5] = settings: ref ToxRefDB, cited from earlier work
# PXR (NR1I2) [6] = biological target: T2, PXR (NR1I2) (Homo sapiens, UniProt O75469); experiment: NVS_NR_hPXR: Human PXR Fluormone PXR (SXR) green (cell-free HTS); type: binding
# T2 sequence (O75469 1-434): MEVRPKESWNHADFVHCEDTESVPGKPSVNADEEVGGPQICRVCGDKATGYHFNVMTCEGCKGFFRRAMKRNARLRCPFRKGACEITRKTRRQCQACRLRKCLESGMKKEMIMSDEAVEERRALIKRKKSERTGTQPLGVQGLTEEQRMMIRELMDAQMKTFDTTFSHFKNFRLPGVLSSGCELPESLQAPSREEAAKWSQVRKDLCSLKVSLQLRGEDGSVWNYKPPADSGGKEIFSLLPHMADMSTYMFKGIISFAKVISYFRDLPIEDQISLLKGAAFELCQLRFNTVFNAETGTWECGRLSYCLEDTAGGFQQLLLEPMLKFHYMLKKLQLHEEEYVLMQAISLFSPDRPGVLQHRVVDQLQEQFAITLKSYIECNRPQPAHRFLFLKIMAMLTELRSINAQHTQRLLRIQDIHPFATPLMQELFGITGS
# From the text: These are a collection of biochemical assays measuring binding constants and enzyme inhibition values. Chemicals were initially screened at a single concentration in duplicate wells at a concentration of 10 [drawing 63] M for cytochrome P-450 assays and 25 [drawing 64] M for all others. […] These assays were run by Caliper Life Sciences (Hanover, MD) under contract to EPA. Short assay descriptions are available at: http://www.caliperls.com/products/contract-research/in-vitro/.
# Cell-free HTS Assays: A collection of biochemical assays measuring binding constants and enzyme inhibition values. […] These assays were run by Caliper Life Sciences (Hanover, MD) under contract to EPA. Short assay descriptions are available at http://www.caliperls.com/products/contract-research/in-vitro/. Values for all endpoints were imported into GeneData Screener (Basel, Switzerland) and normalised to solvent controls from the same plate as the tested compounds and expressed as percent of neutral control. Concentration-response curves were fit in GeneData Screener (Basel, Switzerland) Condeseo module using the Hill equation and AC50 values were determined. […] Detailed description of the methods, data and analysis methods for this dataset are described in a separate publication.
# CYP2B6 = experiment: CLZD_CYP2B6: Change in expression of CYP2B6 (primary human hepatocytes); type: cell-based; settings: 24 hr
# Protocol: as §1, §2
# Rat Liver [7] = settings: ref ToxRefDB, cited from earlier work; remark: listed apart in the source
# PXR (NR1I2) [8] = biological target: T2, PXR (NR1I2); experiment: ATG_PXR_TRANS: Factorial reporter gene assay (HepG2); type: cell-based; set-up: endogenous in cells; host or cells: HepG2; settings: HepG2
# Protocol: as §3, §4
# Rat Liver [9] = settings: ref ToxRefDB, cited from earlier work; remark: listed apart in the source
# PXR (NR1I2) [10] = biological target: T2, PXR (NR1I2); experiment: ATG_PXRE_CIS: Factorial reporter gene assay (HepG2); type: cell-based; set-up: endogenous in cells; host or cells: HepG2; settings: HepG2
# Protocol: as §3, §4
# CYP1A2 = experiment: CLZD_CYP1A2: Change in expression of CYP1A2 (primary human hepatocytes); type: cell-based; settings: 24 hr
# Protocol: as §1, §2
# CYP3A4 = experiment: CLZD_CYP3A4: Change in expression of CYP3A4 (primary human hepatocytes); type: cell-based; settings: 24 hr
# Protocol: as §1, §2
# [11] = mouse chronic study, liver, coded 6 / Inf, code not explained in table
# [12] = rat chronic study, liver, preneoplastic lesion, coded 6 / 0, code not explained in the table
# [13] = rat chronic study, liver, neoplastic lesion, coded 6 / 0, code not explained in the table
# [14] = rat chronic study, liver, any lesion, coded 6 / 0, code not explained in the table
# [15] = preneoplastic lesion, code not explained in the table
# [16] = neoplastic lesion, code not explained in the table
# [17] = mouse chronic study, liver, any lesion, coded 6 / Inf, code not explained in the table
# [18] = rat chronic study, liver, coded 6 / 0, code not explained in table
smiles,measurement,setting,value
COC(=O)NC(=S)Nc1ccccc1NC(=S)NC(=O)OC [chemical 301],CHR_Mouse_Liver_2_PreneoplasticLesion,Mouse Liver [1]; code not explained in table,6
same,CHR_Mouse_Liver_3_NeoplasticLesion,Mouse Liver [2]; code not explained in table,6
same,CHR_Mouse_Liver_1_AnyLesion,Mouse Liver [3]; [11],6
CCC(CC)Nc1c([N+](=O)[O-])cc(C)c(C)c1[N+](=O)[O-] [r238],CLZD_CYP1A1_24,CYP1A1,5.24
same,ATG_PPARg_TRANS,[4],4.167
same,CHR_Rat_Liver_2_PreneoplasticLesion,"Rat Liver [5]; rat, chronic study",6
same,NVS_NR_hPXR,PXR (NR1I2) [6],5.143
same,CLZD_CYP2B6_24,CYP2B6,4.988
same,CHR_Rat_Liver_3_NeoplasticLesion,"Rat Liver [7]; rat, chronic study",0
same,ATG_PXR_TRANS,PXR (NR1I2) [8],4.432
same,CHR_Rat_Liver_1_AnyLesion,"Rat Liver [9]; rat, chronic study",6
same,ATG_PXRE_CIS,PXR (NR1I2) [10],4.959
CCCCNC(=O)OCC#CI [Dataset S3 row 6],CHR_Rat_Liver_2_PreneoplasticLesion,Rat Liver [5]; [12],0
same,CHR_Rat_Liver_3_NeoplasticLesion,Rat Liver [7]; [13],0
same,CHR_Rat_Liver_1_AnyLesion,Rat Liver [9]; [14],6
same,CHR_Mouse_Liver_2_PreneoplasticLesion,Mouse Liver [1]; [15],6
same,CHR_Mouse_Liver_3_NeoplasticLesion,Mouse Liver [2]; [16],6
same,CHR_Mouse_Liver_1_AnyLesion,Mouse Liver [3]; [17],6
CCCOC(=O)c1ccc(C(=O)OCCC)nc1 [Dataset S3 row 4],CHR_Rat_Liver_2_PreneoplasticLesion,Rat Liver [5]; [12],6
same,CHR_Rat_Liver_3_NeoplasticLesion,Rat Liver [7]; [13],6
same,CHR_Rat_Liver_1_AnyLesion,Rat Liver [9]; [14],6
same,CHR_Mouse_Liver_2_PreneoplasticLesion,Mouse Liver [1]; [15],6
same,CHR_Mouse_Liver_3_NeoplasticLesion,Mouse Liver [2]; [16],6
same,CHR_Mouse_Liver_1_AnyLesion,Mouse Liver [3]; [17],6
C=CC1(C)OC(=O)N(c2cc(Cl)cc(Cl)c2)C1=O (centres unmarked) [chemical 319],CHR_Rat_Liver_2_PreneoplasticLesion,Rat Liver [5]; [18],6
same,CHR_Rat_Liver_3_NeoplasticLesion,Rat Liver [7]; [18],6
same,CHR_Rat_Liver_1_AnyLesion,Rat Liver [9]; [18],6
same,CHR_Mouse_Liver_2_PreneoplasticLesion,Mouse Liver [1]; code not explained in table,6
same,CHR_Mouse_Liver_3_NeoplasticLesion,Mouse Liver [2]; code not explained in table,6
same,CHR_Mouse_Liver_1_AnyLesion,Mouse Liver [3]; [11],6
CC(C)Nc1nc(Cl)nc(NC(C)C)n1 [r260],CLZD_CYP1A1_24,CYP1A1,4.988
same,ATG_PPARg_TRANS,[4],4.481
same,CHR_Rat_Liver_2_PreneoplasticLesion,"Rat Liver [5]; rat, chronic study",0
same,CLZD_CYP2B6_24,CYP2B6,5.165
same,CHR_Rat_Liver_3_NeoplasticLesion,"Rat Liver [7]; rat, chronic study",0
same,CLZD_CYP1A2_24,CYP1A2,5.254
same,ATG_PXR_TRANS,PXR (NR1I2) [8],4.469
same,CHR_Rat_Liver_1_AnyLesion,"Rat Liver [9]; rat, chronic study",0
same,ATG_PXRE_CIS,PXR (NR1I2) [10],4.569
same,CHR_Mouse_Liver_1_AnyLesion,"Mouse Liver [3]; mouse, chronic study",6
same,CLZD_CYP3A4_24,CYP3A4,5.248
Oc1ccccc1-c1ccccc1 [Dataset S3 row 5],CHR_Mouse_Liver_2_PreneoplasticLesion,Mouse Liver [1]; [15],6
same,CHR_Mouse_Liver_3_NeoplasticLesion,Mouse Liver [2]; [16],6
same,CHR_Mouse_Liver_1_AnyLesion,Mouse Liver [3]; [17],6

# From paper PMC3038857, “Using Nuclear Receptor Activity to Stratify Hepatocarcinogens” (PLoS ONE, 2011)
